Literature values as cited in patent US20230233498A1, “COMPOSITIONS AND METHODS FOR THE TREATMENT OF COVID-19” (PROTHIONE, LLC, priority 2020, published 2023).
Like-named read-outs stand apart in the source and are kept apart here.

Key:
[1] = test system: zinc-dependent metalloproteinases; conditions: for GP shedding: higher concentrations (25-50 mM)
[2] = test system: rotaviruses; conditions: 10 mM
[3] = test system: Human Foreskin (HF) cells infected with HSV-2-strain G; conditions: 3 to 1.5 mM

CNC(=O)[C@@H](NC(=O)[C@H](CC(C)C)[C@H](O)C(=O)NO)C(C)(C)C [BB2516]
inhibition of glycoprotein shedding ([1]; concentration of 0.5 mM): inhibitory effects were observed

COc1ccc(S(=O)(=O)N(Cc2cccnc2)[C@@H](C(=O)NO)C(C)C)cc1 [CGS-27023A]
GP shedding [1]: reduced GP shedding

O=C(O)CN(CCN(CC(=O)O)CC(=O)O)CC(=O)O [EDTA, ethylenediaminetetraacetic acid]
effect on viral particles [2]: non-infectious viral particles

CNC(=O)[C@H](Cc1c[nH]c2ccccc12)NC(=O)[C@@H](CC(=O)NO)CC(C)C [GM6001]
inhibition of glycoprotein shedding ([1]; concentration of 5 mM): inhibitory effects were observed

COc1ccc(S(=O)(=O)N(CC(=O)NO)CC(C)C)cc1 [MMP-3 inhibitor II]
GP shedding [1]: reduced GP shedding

COc1ccc(S(=O)(=O)N2Cc3ccccc3C[C@@H]2C(=O)NO)cc1 [MMP-8 inhibitor I]
inhibition of glycoprotein shedding ([1]; concentration of 5 mM): inhibitory effects were observed

CC(C)C[C@H](CC(=O)NO)C(=O)N[C@@H](Cc1ccc2ccccc2c1)C(=O)N[C@@H](C)C(=O)NCCN [TAPI-I]
GP shedding [1]: reduced GP shedding

O=C(O)c1ccccn1 [picolinic acid]
apoptosis of infected cells [3]: cause apoptosis of HF infected cells
